Columns and labels:
[1] = ground 1:1 mixture with bisVCap, heated to 150-180° C., cooled to −85° C., second heating cycle
[2] = assay type: physicochemical; settings: for crystallinity of ROY sample on the basis of birefringence: coformer ground 1:1 molar with ROY (PVP K12, PVCap 1:1 by mass; ROY control without coformer), melted, cooled to room temperature overnight
Text: Compounds 3-8 and VCap were all ground using a mortar and pestle in a 1:1 molar ratio with ROY. Comparative experiments were also undertaken in the same way with PVP (K12) (1) and PVCap (2) in a 1:1 ratio by mass with ROY. The samples were then placed on a microscope slide and covered with a thin, glass cover slip and heated using a hot stage optical microscope until all material had melted. The samples were then removed from the hot stage and allowed to cool to room temperature overnight. The cooled samples were examined under a microscope fitted with cross polarizing filters and assessed for crystallinity on the basis of birefringence.
(§1) A Linkam LTS420 heating stage attached to a Olympus XC50 microscope was used to heat the samples. Samples were placed on a glass microscope slide with a thin glass cover slide. For the amorphous material screening compounds were ground together in various drug to coformer ratio using 0.05 g of coformer in each case and heated at 30° C. min^−1 until the all of the sample had melted. Samples were then removed from the hot stage and allowed to cool. BisVCap was ground in 1:1 molar mixture with carbamazepine, carisoprodol, isoniazid and ROY. The carbamazepine/bisVCap sample was heated from room temperature to 170° C. at a rate of 10° C. min^−1, cooled at ° C. min^−1 to −40° C., then heated at 10° C. min^−1 to 165° C. The carisoprodol/bisVCap sample was heated from room temperature to 150° C. at a rate of 10° C. min^−1, cooled at ° C. min^−1 to −75° C., then heated at 10° C. min^−1 to 145° C. min^−1. The isoniazid/bisVCap sample was heated from room temperature to 175° C. at a rate of 10° C. min^−1, cooled at ° C. min^−1 to −100° C., then heated at 10° C. min^−1 to 125° C. min^−1. The ROY/bisVCap sample was heated from room temperature to 150° C. at a rate of 10° C. min^−1, cooled at ° C. min^−1 to −90° C., then heated at 10° C. min^−1 to 155° C. min^−1.

[3] = Heat-cool-heat cycles on hot stage with polarized light microscope; assay type: physicochemical; settings: 1:1 mixture with bisVCap
Text: The same heat-cool-heat cycles used in the DSC experiments were reproduced using a hot stage attached to a polarized light microscope for 1:1 mixtures of carisoprodol, carbamazepine, isoniazid and ROY with bisVCap.
as §1

[4] = Hot stage microscope experiments with increasing drug:bisVCap ratios; assay type: physicochemical; settings: melted, cooled to room temperature
Experimental: One major problem with PVP as an amorphous stabilizer is that often a large amount is required for stabilization of the amorphous phase. This often leads to very large pills or dosage forms which consist of multiple tablets. Thus further hot stage microscope and DSC experiments of bisVCap mixtures with carisoprodol, carbamazepine, isoniazid and ROY were performed with increasing drug:bisVCap ratios to determine the minimum ratio of coformer required to maintain the API in an amorphous state.
For the microscope experiments the drugs and bisVCap were ground in the desired ratio, heated until all the sample had melted then cooled back to room temperature and analyzed by polarized light microscopy.
as §1

[5] = Screening of bisVCap and bisVP with a range of drugs (hot stage melt, polarized optical microscopy); assay type: physicochemical; settings: for crystallinity by polarized light microscopy, drug with bisVCap: drug:bisVCap 1:1 mol ratio, ground, melted, cooled, overnight / 18 hours at room temperature
Experimental: Control samples without lactam coformers were also prepared for comparison. The slides were then allowed to cool to room temperature. The samples were examined using polarized optical microscopy after storing them overnight and again two weeks after melting to assess their crystallinity. Polarized optical micrographs were observed.
as §1, with “For the amorphous material screening compounds were ground together in various drug to coformer ratio using 0.05 g of coformer in each case and heated at 30° C. min^−1 until the all of the sample had melted.” left out

[6] = Dynamic vapor sorption (DVS) water uptake; assay type: physicochemical; settings: for hygroscopicity: DVS, small mass increase and lack of hysteresis; for mass increase in DVS plot: up to 90% relative humidity
Experimental: A significant issue with PVP as an amorphous stabilizer is its hydroscopicity, and amorphous materials are frequently hygroscopic. Dynamic vapor sorption (DVS) has been used to compare the water uptake of bisVCap and PVP. […] However, amorphous forms have more apparent solubility than crystal forms and it is possible that amorphous bisVCap could absorb much more water than the crystalline form.
DVS was performed using an SMS DVS-1 with a 10% RH step between humidity values with equilibrium achieved at 0.01% weight change before moving to the next step. Methods began at the humidity of the room at ambient which was measured by a Rotronic A/H hygrometer. The humidity was then increased to 90% RH before cycling to 0% RH, to 90% RH, to 0% RH. Samples weighing between 5-20mg were used.

Q: What does the source list for `Cc1cc(C#N)c(Nc2ccccc2[N+](=O)[O-])s1` [ROY, 5-methyl-2-[(2-nitrophenyl)amino]-3-thiophenecarbonitrile]?
A: DSC behaviour of mixture with bisVCap [1]: lacking features assignable to decomposition, recrystallization or melting endotherms in the second heating cycle; crystallinity of ROY sample on the basis of birefringence [2]: readily crystallizes; time to ROY crystallization upon cooling ([2]; melt of ROY alone or 1:1 molar with coformer, cooling to room temperature): within a few minutes; coamorphous phase formation in hot stage heat-cool-heat cycle [3]: confirm coamorphous phase formation; visible crystallization by polarized light microscopy ([4]; 2:1 drug:bisVCap molar ratio): no visible crystallization; visible crystallization by polarized light microscopy ([4]; 3:1 drug:bisVCap ratio): formed crystals overnight

Q: With `CCCCC(=O)N(Cc1ccc(-c2ccccc2-c2nnn[nH]2)cc1)[C@H](C(=O)O)C(C)C` [Valsartan] as the compound, how does the “crystallinity by polarized light microscopy, drug on its own” value ([5]; control sample without lactam coformer, melted and cooled to room temperature) read?
A: remains amorphous

Q: With `CCOC(=O)c1ccc(N)cc1` [benzocaine] as the compound, how does the “crystallinity by polarized light microscopy, drug with bisVCap” value (“crystallinity … with bisVCap” below) [5] read?
A: crystallized overnight

Q: With `Cn1c(=O)c2c(ncn2C)n(C)c1=O` [caffeine] as the compound, how does the “crystallinity … with bisVCap” value [5] read?
A: crystallized overnight

Q: With `NC(=O)N1c2ccccc2C=Cc2ccccc21` [carbamazepine] as the compound, how does the “DSC behaviour of mixture with bisVCap” value [1] read?
A: lacking features assignable to decomposition, recrystallization or melting endotherms in the second heating cycle

Q: What about the “coamorphous phase formation in hot stage heat-cool-heat cycle” value [3] of the same compound?
A: confirm coamorphous phase formation

Q: And the “crystallinity … with bisVCap” value [5]?
A: appear amorphous

Q: And the “visible crystallization by polarized light microscopy” value (“visible crystallization” below) ([4]; 2:1 drug:bisVCap molar ratio)?
A: no visible crystallization

Q: And the “visible crystallization” value ([4]; 3:1 drug:bisVCap ratio)?
A: formed crystals overnight

Q: What does the source list for `CCCC(C)(COC(N)=O)COC(=O)NC(C)C` (stereo not drawn) [carisoprodol]?
A: DSC behaviour of mixture with bisVCap [1]: lacking features assignable to decomposition, recrystallization or melting endotherms in the second heating cycle; coamorphous phase formation in hot stage heat-cool-heat cycle [3]: confirm coamorphous phase formation; crystallinity by polarized light microscopy, drug with bisVCap [5]: appear amorphous; visible crystallization by polarized light microscopy ([4]; 2:1 drug:bisVCap molar ratio): no visible crystallization; visible crystallization by polarized light microscopy ([4]; 3:1 drug:bisVCap ratio): did not show any visible crystallization; visible crystallization by polarized light microscopy ([4]; 4:1 drug:bisVCap ratio): formed crystals overnight

Q: For `NCCc1ccc(O)c(O)c1` [dopamine], which “crystallinity … with bisVCap” value [5] is on record?
A: appear amorphous

Q: With `CCc1cc(C(N)=S)ccn1` [ethionamide] as the compound, how does the “DSC behaviour of mixture with bisVCap” value [1] read?
A: sharp and overlapping endothermic peaks on heating, which arise from decomposition

Q: What about the “crystallinity … with bisVCap” value [5] of the same compound?
A: appear amorphous

Q: What does the source list for `CC(C)Cc1ccc(C(C)C(=O)O)cc1` (stereo not drawn) [ibuprofen]?
A: DSC behaviour of mixture with bisVCap [1]: sharp and overlapping endothermic peaks on heating, which arise from decomposition; crystallinity by polarized light microscopy, drug with bisVCap [5]: appear amorphous

Q: With `NNC(=O)c1ccncc1` [isoniazid] as the compound, how does the “DSC behaviour of mixture with bisVCap” value [1] read?
A: lacking features assignable to decomposition, recrystallization or melting endotherms in the second heating cycle

Q: And the “coamorphous phase formation in hot stage heat-cool-heat cycle” value [3]?
A: confirm coamorphous phase formation

Q: What about the “crystallinity … with bisVCap” value [5] of the same compound?
A: appear amorphous

Q: And the “visible crystallization” value ([4]; 2:1 drug:bisVCap molar ratio)?
A: no visible crystallization

Q: What about the “visible crystallization” value ([4]; 3:1 drug:bisVCap ratio) of the same compound?
A: formed crystals overnight

Q: Which “crystallinity … with bisVCap” value [5] does the source give for `CN(C)C(=N)N=C(N)N` [metformin] here?
A: crystallized overnight

Q: Which results are given for `Cc1cccc(C)c1OCC(C)N` (stereo not drawn) [mexiletine]?
A: DSC behaviour of mixture with bisVCap [1]: sharp and overlapping endothermic peaks on heating, which arise from decomposition; crystallinity by polarized light microscopy, drug with bisVCap [5]: appear amorphous

Q: What does the source list for `Cc1c(Cl)cccc1Nc1ccccc1C(=O)O` [tolfenamic acid]?
A: DSC behaviour of mixture with bisVCap [1]: sharp and overlapping endothermic peaks on heating, which arise from decomposition; crystallinity by polarized light microscopy, drug with bisVCap [5]: appear amorphous

Q: Which results are given for “(bis)vinylcaprolactam [Amorphous bisVCap]”?
A: hygroscopicity [6]: not significantly hygroscopic; mass increase in DVS plot [6]: 1.2%

Q: Which “stability of coamorphous phase with ROY on storage” value [2] does the source give for (bis)vinylcaprolactam [bisVCap] here?
A: stable for prolonged periods

Q: What about the “crystallinity of ROY sample on the basis of birefringence” value [2] of the same compound?
A: gives a coamorphous phase with ROY

Q: What about the hygroscopicity [6] of the same compound?
A: not hydroscopic

Q: For “(bis)vinylcaprolactam [crystalline bisVCap]”, which hygroscopicity [6] is on record?
A: not significantly hygroscopic

Q: And the “mass increase in DVS plot” value [6]?
A: 0.35%
